# Reference: publication PMC10135057, “Molecular Modification of Kex2 P1’ Site Enhances Expression and Druggability of Fungal Defensin” (Antibiotics, 2023)
# Values joined by “and” are separate entries in the source; they are usually repeats but may differ in a detail not shown here. Identical values can stand only once. Like-named read-outs stand apart in the source and are kept apart here. Bridge positions count the residues as written; N and C are the ends. Ends that are not written are not given here.
# How the values were obtained:
# S. aureus ATCC 43300 [1] = experiment: Bactericidal kinetics (time-killing curves); type: cell-based, Staphylococcus aureus; conditions: FNZ 1×, 2×, 4× MIC; ampicillin 2× MIC; S. aureus ATCC 43300
# Procedure: The S. aureus ATCC 43300 in logarithmic growth stage was diluted to a final concentration of 10^6 CFU/mL. […] Samples were taken at 0, 0.5, 1, 2, 4, 6, 8, 10, 20, and 24 h, serially diluted, and visible colonies were counted on MHA plates.
# S. aureus ATCC 43300 [2] = experiment: microbe, parasite or virus in culture; type: cell-based, Staphylococcus aureus; conditions: S. aureus ATCC 43300; for MIC: Staphylococcus aureus, ATCC43300, read-out: MICa (MIC of drug alone)
# Procedure: The effects of combination were evaluated by calculating the FICI. FICI ≤ 0.5 was defined as synergy, 0.5 < FICI ≤ 1 was defined as additivity, 1 < FICI ≤ 4 was defined as indifference, and FICI > 4 was defined as antagonism.
# S. aureus CVCC 546 = experiment: microbe, parasite or virus in culture; type: cell-based, Staphylococcus aureus; conditions: S. aureus CVCC 546, CLSI procedure, triplicate, read-out: MIC
# Procedure: (§1) The minimal inhibitory concentrations (MICs) assay was performed according to the CLSI procedures with the final peptide concentrations of 256, 128, 64, 32, 16, 8, 4, 2, 1, and 0.5 μg/mL, respectively. All tests were conducted in triplicate.
# S. aureus ATCC 25923 = experiment: microbe, parasite or virus in culture; type: cell-based, Staphylococcus aureus; conditions: S. aureus ATCC 25923, CLSI procedure, triplicate, read-out: MIC
# Procedure: as §1
# S. aureus E48 = experiment: microbe, parasite or virus in culture; type: cell-based, Staphylococcus aureus; conditions: S. aureus E48, CLSI procedure, triplicate, read-out: MIC
# Procedure: as §1
# [3] = tested on: S. epidermidis ATCC 12228; experiment: microbe, parasite or virus in culture; type: cell-based, Staphylococcus epidermidis; conditions: S. epidermidis ATCC 12228, CLSI procedure, triplicate, read-out: MIC
# Procedure: as §1
# [4] = tested on: Escherichia coli ATCC 25922; experiment: microbe, parasite or virus in culture; type: cell-based; conditions: Escherichia coli ATCC 25922, CLSI procedure, triplicate, read-out: MIC
# Procedure: as §1
# [5] = tested on: Staphylococcus aureus ATCC 43300; experiment: microbe, parasite or virus in culture; type: cell-based; conditions: S. aureus ATCC 43300, CLSI procedure, triplicate, read-out: MIC
# Procedure: as §1
# S. aureus ATCC 43300 [6] = experiment: Salts stability (MIC after incubation with Na+ or Mg2+); type: cell-based, Staphylococcus aureus; conditions: 37 °C, 1 h, MIC vs S. aureus ATCC 43300, triplicate, read-out: MIC after treatment
# [7] = tested on: Gram-negative bacteria (E. coli, S. enterica, P. aeruginosa); experiment: MIC, summary over Gram-negative bacteria; type: cell-based
# Procedure: as §1
# S. aureus ATCC 43300 [8] = experiment: pH stability (MIC after pH treatment); type: physicochemical, Staphylococcus aureus; conditions: MIC vs S. aureus ATCC 43300, triplicate
# Procedure: (§2) The tolerance of FNZ to temperature and pH was evaluated. The stability of FNZ in simulated gastric fluid, artificial intestinal fluid and mouse serum was carried out as previously described. […] All assays were conducted in triplicate.
# S. aureus ATCC 43300 [9] = experiment: Thermal stability (MIC after heat treatment); type: physicochemical, Staphylococcus aureus; conditions: MIC vs S. aureus ATCC 43300, triplicate
# Procedure: as §2
# S. aureus ATCC 43300 [10] = experiment: Stability in mouse serum (MIC after treatment); type: in vitro ADME, Staphylococcus aureus; conditions: mouse serum (25%), 1–4 h
# Procedure: as §2
# RAW264.7 cells = experiment: Cytotoxicity, MTT assay; type: cell-based, mouse; conditions: at 128 μg/mL, n = 3
# Source text: The MTT assay was used to test the cytotoxicity of FNZ to the RAW 264.7 cells.
# S. aureus ATCC 43300 [11] = experiment: Stability in simulated gastric fluid (MIC after treatment); type: in vitro ADME, Staphylococcus aureus; conditions: 1 h, MIC vs S. aureus ATCC 43300, triplicate
# Procedure: as §2
# [12] = tested on: G+ bacteria (S. aureus, S. hyicus, S. agalactiae, S. epidermidis); experiment: MIC, summary over Gram-positive bacteria; type: cell-based; conditions: range over S. aureus
# Procedure: as §1
# [13] = tested on: Salmonella enterica ATCC 13076; experiment: Minimal inhibitory concentration (MIC); type: cell-based; conditions: CLSI procedure, triplicate
# Procedure: as §1
# [14] = tested on: Pseudomonas aeruginosa CICC 20625; experiment: Minimal inhibitory concentration (MIC); type: cell-based; conditions: CLSI procedure, triplicate
# Procedure: as §1
molecule,measurement,setting,value
"CC1(C)S[C@@H]2[C@H](NC(=O)[C@H](N)c3ccccc3)C(=O)N2[C@H]1C(=O)O [Ampicillin, ampicillin]",Regrowth (rebound of colonies) up to 24 h,S. aureus ATCC 43300 [1],rebound situation was observed
same,MIC,"S. aureus ATCC 43300 [2]; checkerboard, 37 °C, 16 h",2 µg/mL
same,Combination effect with FNZ (in words),S. aureus ATCC 43300 [2]; checkerboard,synergistic effect
same,FIC,S. aureus ATCC 43300 [2]; combination FNZ + Amp,0.063
same,MIC,"S. aureus CVCC 546; Staphylococcus aureus, CVCC546",0.25 µg/mL and 0.62 µM
same,MIC,"S. aureus ATCC 25923; Staphylococcus aureus, ATCC25923",0.25 µg/mL and 0.62 µM
same,MIC,S. aureus E48; Staphylococcus aureus,0.25 µg/mL and 0.62 µM
same,MIC,"[3]; Staphylococcus epidermidis, ATCC12228",2 µg/mL and 2.48 µM
same,MIC,[4]; ATCC25922,1 µg/mL and 1.24 µM
same,MIC,"[5]; Staphylococcus aureus, ATCC43300",2 µg/mL and 2.48 µM
"O=C(O)c1cn(C2CC2)c2cc(N3CCNCC3)c(F)cc2c1=O [Cip, ciprofloxacin]",MIC,"S. aureus ATCC 43300 [2]; checkerboard, 37 °C, 16 h",0.25 µg/mL
same,MICc (MIC of drug used in combination),"S. aureus ATCC 43300 [2]; combination FNZ + Cip, checkerboard, 37 °C, 16 h",0.375 µg/mL
"NC[C@H]1O[C@H](O[C@H]2[C@H](O)[C@@H](O[C@H]3O[C@H](CO)[C@@H](O)[C@H](N)[C@H]3O)[C@H](N)C[C@@H]2N)[C@H](O)[C@@H](O)[C@@H]1O [Kan, kanamycin]",MICa (MIC of drug alone),"S. aureus ATCC 43300 [2]; checkerboard, 37 °C, 16 h",64 µg/mL
same,Combination effect with FNZ (in words),S. aureus ATCC 43300 [2]; checkerboard,synergistic effect
same,FIC,S. aureus ATCC 43300 [2]; combination FNZ + Kan,0.008
same,MICc (MIC of drug used in combination),"S. aureus ATCC 43300 [2]; combination FNZ + Kan, checkerboard, 37 °C, 16 h",0.5 µg/mL
"FGFGCNGPWNEDDLRCHNHCKSIKGYKGGYCAKGGFVCKCY (disulfide 5-31, 16-38, 20-40) [FNZ]",MIC,S. aureus ATCC 43300 [6]; 50 mM Mg2+,1.75 µM
same,MIC,S. aureus ATCC 43300 [6]; 50 mM Na+,1.75 µM
same,MIC,S. aureus ATCC 43300 [6]; 100 mM Mg2+,1.75 µM
same,MIC,S. aureus ATCC 43300 [6]; 100 mM Na+,1.75 µM
same,MIC,S. aureus ATCC 43300 [6]; 150 mM Mg2+,1.75 µM
same,MIC,S. aureus ATCC 43300 [6]; 150 mM Na+,1.75 µM
same,MIC,S. aureus ATCC 43300 [6]; 300 mM Mg2+,3.5 µM
same,MIC,S. aureus ATCC 43300 [6]; 300 mM Na+,1.75 µM
same,MIC,S. aureus ATCC 43300 [6]; 500 mM Mg2+,>7 µM
same,MIC,S. aureus ATCC 43300 [6]; 500 mM Na+,3.5 µM
same,"MICs, Gram-negative bacteria",[7],> 128 µg/mL
same,MIC after treatment,S. aureus ATCC 43300 [8]; pH 2,1.75 µM
same,MIC after treatment,S. aureus ATCC 43300 [8]; pH 4,1.75 µM
same,MIC after treatment,S. aureus ATCC 43300 [8]; pH 6,1.75 µM
same,MIC after treatment,S. aureus ATCC 43300 [8]; pH 8,1.75 µM
same,MIC after treatment,S. aureus ATCC 43300 [8]; pH 10,3.5 µM
same,MIC after treatment,S. aureus ATCC 43300 [9]; 20 °C for 1 h,1.75 µM
same,MIC after treatment,S. aureus ATCC 43300 [9]; 40 °C for 1 h,1.75 µM
same,MIC after treatment,S. aureus ATCC 43300 [9]; 60 °C for 1 h,1.75 µM
same,MIC after treatment,S. aureus ATCC 43300 [9]; 80 °C for 1 h,1.75 µM
same,MIC after treatment,S. aureus ATCC 43300 [9]; 100 °C for 1 h,3.5 µM
same,FIC,S. aureus ATCC 43300 [2]; combination FNZ + Amp,0.016
same,FIC,S. aureus ATCC 43300 [2]; combination FNZ + Cip,0.031
same,FIC,S. aureus ATCC 43300 [2]; combination FNZ + Kan,0.063
same,FIC,S. aureus ATCC 43300 [2]; combination FNZ + Van,0.125
same,MIC,S. aureus CVCC 546,1.75 µM
same,MIC,S. aureus ATCC 25923,1.75 µM
same,MIC,S. aureus E48,0.88 µM
same,MIC,[3],1.75 µM
same,Serum stability (in words),S. aureus ATCC 43300 [10]; MIC read-out,Stable^a
same,MIC after treatment,"S. aureus ATCC 43300 [10]; MIC vs S. aureus ATCC 43300, triplicate",8 μg/mL and 1.75 μM
same,Cell viability (survival),RAW264.7 cells,88.56%
same,MIC after treatment,S. aureus ATCC 43300 [11],8 μg/mL and 1.75 μM
same,"MICs, G+ bacteria",[12],4 to 8 µg/mL
same,MIC,[13],>28.05 µM
same,MIC,[14],>28.05 µM
same,MIC,[4],>28.05 µM
same,MIC,[5],1.75 µM
